{
  "source": "patent US20210113540A1",
  "about": "“TREATMENT AGENT AND PHARMACEUTICAL COMPOSITION FOR GLIOMA” (NATIONAL UNIVERSITY CORPORATION HOKKAIDO UNIVERSITY, priority 2018, published 2021)",
  "tested_on": "Temozolomide-resistant E6 (E6R)",
  "experiment": "Xenograft model, subcutaneous E6R in NOD/SCID mice",
  "format": "in vivo",
  "method": "Temozolomide-resistant E6 (E6R, 1×10^6) was subcutaneously transplanted into NOD/SCID mice (n=6), and Compound 8 (1.0 mg/kg) was orally administered for 11 consecutive days after the long diameter and short diameter of tumor became 5 to 6 mm. […] The size of tumor was calculated as (long diameter)×(short diameter)^2/2. Tumors were excised from Compound 8 treated mice and control mice on Day 12 from the start of oral administration of Compound 8 and fixed with 4% paraformaldehyde, followed by preparation of frozen sections. As a result, tumor cell aggregates disappeared by treatment with Compound 8.",
  "key": {"[1]": {"conditions": "1.0 mg/kg orally, tumors excised on Day 12"}},
  "data": [
    {"compound": "O=C(O)c1cc(C2CC2)cnc1Nc1ccc2c(ccn2-c2ccccc2)c1", "note": "[Compound 8, 5-cyclopropyl-2-((1-phenyl-1H-indole-5-yl)amino)nicotinic acid]", "values": [
      {"measurement": "tumor growth (size of tumor)", "setting": "1.0 mg/kg orally for 11 consecutive days, FIG. 2", "result": "reduced tumor growth"},
      {"measurement": "SOX2 in the mouse tumor tissue", "setting": "[1]", "result": "disappearance of SOX2"},
      {"measurement": "tumor cell aggregates in excised tumor sections", "setting": "[1]", "result": "disappeared"}
    ]}
  ]
}
